{
  "source": "patent US20230219963A1",
  "about": "“PYRROLO[2,3-D]PYRIMIDINE DERIVATIVES” (Pfizer Inc., priority 2020, published 2023)",
  "type_in_all_cases": "cell-based",
  "key": {"[1]": {"tested_on": "IL-15 induced pSTAT5", "test": "IL-15-induced pSTAT5 in human whole blood (lymphocytes)", "settings": "Lymphocyte, JAK1/JAK3, read-out: IL-15 induced pSTAT5, cellular potency IC50", "description": "(§1) Human whole blood was collected from healthy donors via vein puncture into Vacutainer collection tubes containing sodium heparin in accordance with Pfizer protocols (Protocol No. GOHW RDP-01) approved by the Shulman Institutional Review Board. Blood was warmed to 37° C. priorto use. Human whole blood was aliquoted (90 μL/well) in 96-well, deep-well, V-bottom plates and treated with compounds (5 μL/well) at different concentrations up to 60 μM (0.2% DMSO final) at 37° C. for 60 minutes. This was followed by a challenge with IFNα (5000 U/mL), IFNγ (100 ng/mL), IL-6 (50 ng/mL), IL-10 (30 ng/mL), IL-12 (30 ng/mL), IL-15 (30 ng/mL), IL-21 (50 ng/mL), IL-23 (25 ng/mL), IL-27 (1000 ng/mL), EPO (2 U/mL), TSLP (50 ng/mL) or PBS and incubated for 15 minutes. Anti-cell surface antibodies were added 15 minutes prior to cytokine stimulation; anti-CD3-BV421 (0.5 μL/well) to IL-6-treated and TSLP-treated samples and anti-CD14-BV421 (0.5 μL/well) to IFNγ-treated samples. Samples were treated with warm 1×Lyse/Fix buffer (700 μL/well) to terminate activation and further incubated at 37° C. for 20 minutes to lyse red blood cells. Plates were centrifuged at 300×g for 5 minutes, supernatant was aspirated, and cells were washed with 800 μL/well of staining buffer (D-PBS containing 0.1% FBS and 0.01% sodium azide). Washed cell pellets were resuspended in 350 μL/well of prechilled 90% methanol and incubated at 4° C. for 30 minutes. After the removal of 90% methanol, cells were washed once with staining buffer. All samples were finally suspended in 150 μL/well of the desired anti-phospho-STAT antibodies at 1:150 dilution in staining buffer; anti-pSTAT1-AF647 in IFNγ treated samples; anti-pSTAT1-AF488 and anti-pSTAT3-AF647 in IL-6-treated samples, anti-pSTAT3-AF647 in IFNα, IL-10, IL-21, IL-23 and IL-27 treated samples, anti-pSTAT4-AF647 in IL-12 treated samples, anti-pSTAT5-AF-647 in EPO, IL-15 and TSLP-treated samples. Human primary keratinocytes were cultured in DermaLife™ medium with supplement kit to expand cell population. Cell passages 2 to 5 were used in the assays. Cells were harvested at ˜80% confluence, suspended in warm DermaLife™ medium, aliquoted (90 μL/well) in 96-well, deep-well, V-bottom plates, and incubated at 37° C. for 30 minutes. Cells were then treated with compounds (0.0003 to 20 μM) for 60 minutes and followed by stimulation with IL-4 (2 ng/mL) or IL-13 (20 ng/mL) at 37° C. for 15 minutes. […]\n(§2) After overnight incubation at 4° C., anti-pSTAT stained samples were transferred into 96-well polypropylene U-bottom plates and flow cytometric analysis was performed on a LSR Fortessa™ equipped with a HTS plate loader. […] Background fluorescence was defined using unstimulated cells and a gate was placed at the foot of the peak to include ˜0.5% gated population. […]"}, "[2]": {"tested_on": "IL-10 induced pSTAT3", "test": "IL-10-induced pSTAT3 in human whole blood (lymphocytes)", "settings": "Lymphocyte, JAK1/TYK2, read-out: IL-10 induced pSTAT3, cellular potency IC50", "description": "as §1, §2"}, "[3]": {"tested_on": "EPO induced pSTAT5", "test": "EPO-induced pSTAT5 in human whole blood (all events)", "settings": "JAK2/JAK2, read-out: EPO induced pSTAT5, cellular potency IC50", "description": "as §1, §2"}, "[4]": {"tested_on": "IL-27 induced pSTAT3", "test": "IL-27-induced pSTAT3 in human whole blood (lymphocytes)", "settings": "Lymphocyte, JAK1/JAK2, read-out: IL-27 induced pSTAT3, cellular potency IC50", "description": "as §1, §2"}, "[5]": {"tested_on": "IL-6 induced pSTATI", "test": "IL-6-induced pSTAT1 in human whole blood (CD3+ cells)", "settings": "JAK1/JAK2, read-out: IL-6 induced pSTATI, cellular potency IC50", "description": "as §1, §2"}, "[6]": {"tested_on": "IL-4 induced pSTAT6", "test": "IL-4-induced pSTAT6 in human keratinocytes", "settings": "Keratinocyte, JAK1/JAK2, read-out: IL-4 induced pSTAT6, cellular potency IC50", "description": "Human whole blood was collected from healthy donors via vein puncture into Vacutainer collection tubes containing sodium heparin in accordance with Pfizer protocols (Protocol No. GOHW RDP-01) approved by the Shulman Institutional Review Board. Blood was warmed to 37° C. priorto use. Human whole blood was aliquoted (90 μL/well) in 96-well, deep-well, V-bottom plates and treated with compounds (5 μL/well) at different concentrations up to 60 μM (0.2% DMSO final) at 37° C. for 60 minutes. This was followed by a challenge with IFNα (5000 U/mL), IFNγ (100 ng/mL), IL-6 (50 ng/mL), IL-10 (30 ng/mL), IL-12 (30 ng/mL), IL-15 (30 ng/mL), IL-21 (50 ng/mL), IL-23 (25 ng/mL), IL-27 (1000 ng/mL), EPO (2 U/mL), TSLP (50 ng/mL) or PBS and incubated for 15 minutes. Anti-cell surface antibodies were added 15 minutes prior to cytokine stimulation; anti-CD3-BV421 (0.5 μL/well) to IL-6-treated and TSLP-treated samples and anti-CD14-BV421 (0.5 μL/well) to IFNγ-treated samples. Samples were treated with warm 1×Lyse/Fix buffer (700 μL/well) to terminate activation and further incubated at 37° C. for 20 minutes to lyse red blood cells. Plates were centrifuged at 300×g for 5 minutes, supernatant was aspirated, and cells were washed with 800 μL/well of staining buffer (D-PBS containing 0.1% FBS and 0.01% sodium azide). Washed cell pellets were resuspended in 350 μL/well of prechilled 90% methanol and incubated at 4° C. for 30 minutes. After the removal of 90% methanol, cells were washed once with staining buffer. […]\nas §2"}, "[7]": {"tested_on": "IFNg induced pSTATI", "test": "IFNγ-induced pSTAT1 in human whole blood (CD14+ cells)", "settings": "JAK1/JAK2, read-out: IFNg induced pSTATI, cellular potency IC50", "description": "as §1, §2"}},
  "data": [
    {"molecule": "CCCS(=O)(=O)N[C@H]1C[C@@H](N(C)c2ncnc3[nH]ccc23)C1", "note": "[Abrocitinib, N-((1S,3S)-3-(Methyl(7H-pyrrolo[2,3-d]pyrimidin-4-yl)amino)cyclo-butyl)propane-1-sulfonamide, reference compound]", "values": [
      {"measurement": "IC50", "setting": "[1]", "value": 537, "unit": "nM"},
      {"measurement": "IC50", "setting": "[2]", "value": 3700, "unit": "nM"},
      {"measurement": "IC50", "setting": "[3]", "value": 7180, "unit": "nM"},
      {"measurement": "IC50", "setting": "[4]", "value": 228, "unit": "nM"},
      {"measurement": "IC50", "setting": "[5]", "value": 343, "unit": "nM"},
      {"measurement": "IC50", "setting": "[6]", "value": 77, "unit": "nM"},
      {"measurement": "IC50", "setting": "[7]", "value": 1690, "unit": "nM"}
    ]}
  ]
}
